Source: patent US20130065847A1, “ENDOPARASITICIDAL COMPOSITIONS” (priority 2010, published 2013)

System: Cooperia Curticei
Assay: In-vivo test on Cooperia curticei on sheep using peroral application
Conditions: Monepantel 0.625 mg/kg, Abamectin 0.05 mg/kg; for Efficacy [%]: 100×(C−T)/C of worm count means vs untreated control, days 14-17; for Efficacy [%] / log [Worm count] [geometric mean value] / Reduction worm count [factor] / Reduction log [worm count]: L4 stage, oral, combination 0.625 & 0.05 mg/kg; for Worm count [Geometric mean value]: experimentally induced infection, treated at L4 stage, single oral application, combination 0.625 & 0.05 mg/kg bodyweight, slaughter days 14-17 after treatment, untreated control 4266; for log [Worm count] [geometric mean value]: log transformed worm counts, untreated control 3.631; for Reduction worm count [factor]: observed; for Reduction worm count [factor] / Reduction log [worm count]: vs untreated control
Source text: In-Vivo Test on Cooperia Curticei on Sheep Using Peroral Application
The study concerned a blinded parallel-group efficacy study against the L4 stage of the subject nematodes. The experimental induced worm burdens of monepantel/abamectin combination treated animals were compared to those of an untreated control group and sheep treated animals with either monepantel or abamectin mono-formulations.
To this end the required larvae were generated first of all through culturing of characterized field isolates. Each animal then received the same dose of L3 (infective) larvae, and their larvae burdens were allowed time to mature. Once the larvae reached the L4 stage, the sheep were allocated to treatment groups 1, 2, 3 and 4 and treated as defined in the Table below:
Oral application using the above described formulations: […]
Two weeks after treatment (days 14-17) the sheep were slaughtered, their gastro-intestinal tracts recovered and processed for enumeration of total worm burdens. The primary measure of efficacy was calculated from the mean worm reduction in groups 2-4 when compared to the untreated control group 1. Efficacies were calculated using the formula
wherein C and T are the worm count means of the Control and Treated groups, respectively.
To this end, worm counts were log transformed as follows: […]

Compound	Efficacy [%]	Worm count [Geometric mean value]	log [Worm count] [geometric mean value]	Reduction worm count [factor]	Reduction log [worm count]
C[C@](C#N)(COc1cc(C#N)ccc1C(F)(F)F)NC(=O)c1ccc(SC(F)(F)F)cc1 [Monepantel, N-((1S)-1-cyano-2-(5-cyano-2-trifluoro-methylphenoxy)-1-methylethyl)-4-trifluoromethylsulfanylbenzamide]	66.0	1453	3.165	~2.9	−0.466
abamectin	68.3	1352	3.134	~3.1	−0.497
